Data from patent US7704995B2 (Exelixis, Inc., priority 2003, dated 2010).

Molecular target: T1, Chk1 (Homo sapiens, UniProt O14757)
T1 construct: purchased Upstate Biotechnology
T1 sequence (O14757 1-476): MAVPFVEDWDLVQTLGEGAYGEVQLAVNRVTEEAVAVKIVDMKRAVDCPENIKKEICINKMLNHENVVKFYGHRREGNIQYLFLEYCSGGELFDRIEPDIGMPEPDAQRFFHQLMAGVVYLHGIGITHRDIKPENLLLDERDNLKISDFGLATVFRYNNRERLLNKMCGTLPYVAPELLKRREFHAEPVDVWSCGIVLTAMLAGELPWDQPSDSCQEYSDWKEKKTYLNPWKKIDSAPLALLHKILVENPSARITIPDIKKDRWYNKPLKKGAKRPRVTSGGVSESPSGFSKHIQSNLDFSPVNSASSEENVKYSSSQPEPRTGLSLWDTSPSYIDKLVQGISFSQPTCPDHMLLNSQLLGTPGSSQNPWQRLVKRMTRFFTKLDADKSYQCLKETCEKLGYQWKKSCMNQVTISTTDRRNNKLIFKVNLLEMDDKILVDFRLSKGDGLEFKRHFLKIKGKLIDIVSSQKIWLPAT
Assay: Chk1 kinase assay: incorporation of γ-33P ATP into immobilized myelin basic protein
Type: biochemical
Conditions: Table 11, Chk1 only; class symbols A-D; read-out: Chk1 IC50
Method in brief: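 Plates coated with MBP, then kinase reactions in Hepes pH 7.6 buffer with 10 mM MgCl2 and 1% DMSO were started by adding unlabeled plus γ-33P ATP (10 μM for Chk1 at 10 nM enzyme; 30 μM for Chk2 at 20 nM enzyme). After 1 h at room temperature, plates were washed and counted.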

IC50, < 50 nM:
Nc1ncc(-c2cccc(NC(=O)Cc3cccc(C(F)(F)F)c3)c2)nc1C(=O)N[C@H]1CCCNC1 [Example 976, 3-amino-N-[(3S)-piperidin-3-yl]-6-[3-({[3-(trifluoromethyl)phenyl]acetyl}amino)phenyl]pyrazine-2-carboxamide]
COc1ccc(CC(=O)Nc2cccc(-c3cnc(N)c(C(=O)N[C@H]4CCCNC4)n3)c2)cc1 [Example 977, 3-amino-6-[3-({[4-(methyloxy)phenyl]acetyl}amino)phenyl]-N-[(3S)-piperidin-3-yl]pyrazine-2-carboxamide]
Nc1ncc(-c2cccc(NC(=O)Cc3cccc(F)c3)c2)nc1C(=O)N[C@H]1CCCNC1 [Example 979, 3-amino-6-(3-{[(3-fluorophenyl)acetyl]amino}phenyl)-N-[(3S)-piperidin-3-yl]pyrazine-2-carboxamide]
Nc1ncc(-c2cccc(NC(=O)Cc3cccnc3)c2)nc1C(=O)N[C@H]1CCCNC1 [Example 980, 3-amino-N-[(3S)-piperidin-3-yl]-6-{3-[(pyridin-3-ylacetyl)amino]phenyl}pyrazine-2-carboxamide]
Nc1ncc(-c2cccc(NC(=O)c3cccnc3)c2)nc1C(=O)N[C@H]1CCCNC1 [Example 981, 3-amino-N-[(3S)-piperidin-3-yl]-6-{3-[(pyridin-3-ylcarbonyl)amino]phenyl}pyrazine-2-carboxamide]
Nc1ncc(-c2cccc(NC(=O)Cc3cc(F)ccc3F)c2)nc1C(=O)N[C@H]1CCCNC1 [Example 982, 3-amino-6-(3-{[(2,5-difluorophenyl)acetyl]amino}phenyl)-N-[(3S)-piperidin-3-yl]pyrazine-2-carboxamide]
Nc1ncc(-c2cccc(NC(=O)Cc3ccc(F)cc3)c2)nc1C(=O)N[C@H]1CCCNC1 [Example 983, 3-amino-6-(3-{[(4-fluorophenyl)acetyl]amino}phenyl)-N-[(3S)-piperidin-3-yl]pyrazine-2-carboxamide]
Nc1ncc(-c2cccc(C(=O)NCc3ccc(Cl)c(Cl)c3)c2)nc1C(=O)N[C@H]1CCCNC1 [Example 985, 3-amino-6-[3-({[(3,4-dichlorophenyl)methyl]amino}carbonyl)phenyl]-N-[(3S)-piperidin-3-yl]pyrazine-2-carboxamide]
Nc1ncc(-c2cccc(CNC(=O)c3ccc(-c4ccc([N+](=O)[O-])cc4)o3)c2)nc1C(=O)N[C@H]1CCCNC1 [Example 986, 3-Amino-6-[3-({[5-(4-nitro-phenyl)-furan-2-carbonyl]-amino}-methyl)-phenyl]-pyrazine-2-carboxylic acid (3S)-piperidin-3-ylamide]
Nc1ncc(-c2cccc(CNC(=O)c3ncccc3O)c2)nc1C(=O)N[C@H]1CCCNC1 [Example 987, 3-amino-6-[3-({[(3-hydroxypyridin-2-yl)carbonyl]amino}methyl)phenyl]-N-[(3S)-piperidin-3-yl]pyrazine-2-carboxamide]
Nc1ncc(-c2cccc(CNC(=O)COc3ccc(OC(F)(F)F)cc3)c2)nc1C(=O)N[C@H]1CCCNC1 [Example 988, 3-amino-N-[(3S)-piperidin-3-yl]-6-[3-({[({4-[(trifluoromethyl)oxy]phenyl}oxy)acetyl]amino}methyl)phenyl]pyrazine-2-carboxamide]
Cc1cc(C(=O)NCc2cccc(-c3cnc(N)c(C(=O)N[C@H]4CCCNC4)n3)c2)no1 [Example 989, 3-amino-6-[3-({[(5-methylisoxazol-3-yl)carbonyl]amino}methyl)phenyl]-N-[(3S)-piperidin-3-yl]pyrazine-2-carboxamide]
Nc1ncc(-c2cccc(CNC(=O)c3ccno3)c2)nc1C(=O)N[C@H]1CCCNC1 [Example 990, 3-amino-6-(3-{[(isoxazol-5-ylcarbonyl)amino]methyl}phenyl)-N-[(3S)-piperidin-3-yl]pyrazine-2-carboxamide]
Cc1nnsc1C(=O)NCc1cccc(-c2cnc(N)c(C(=O)N[C@H]3CCCNC3)n2)c1 [Example 991, 3-amino-6-[3-({[(4-methyl-1,2,3-thiadiazol-5-yl)carbonyl]amino}methyl)phenyl]-N-[(3S)-piperidin-3-yl]pyrazine-2-carboxamide]
Nc1ncc(-c2cccc(CNC(=O)c3cc(Cl)sc3Cl)c2)nc1C(=O)N[C@H]1CCCNC1 [Example 992, 3-amino-6-[3-({[(2,5-dichloro-3-thienyl)carbonyl]amino}methyl)phenyl]-N-[(3S)-piperidin-3-yl]pyrazine-2-carboxamide]
Cc1ccc(Cl)cc1CNC(=O)c1cccc(-c2cnc(N)c(C(=O)N[C@H]3CCCNC3)n2)c1 [Example 993, 3-amino-6-[3-({[(5-chloro-2-methylphenyl)methyl]amino}carbonyl)phenyl]-N-[(3S)-piperidin-3-yl]pyrazine-2-carboxamide]
Nc1ncc(-c2cccc(C(=O)NCc3c(F)cccc3Cl)c2)nc1C(=O)N[C@H]1CCCNC1 [Example 995, 3-amino-6-[3-({[(2-chloro-6-fluorophenyl)methyl]amino}carbonyl)phenyl]-N-[(3S)-piperidin-3-yl]pyrazine-2-carboxamide]
Nc1ncc(-c2cccc(C(=O)NCc3ccc(Cl)cc3F)c2)nc1C(=O)N[C@H]1CCCCNC1 [Example 996, 3-amino-N-[(3S)-azepan-3-yl]-6-[3-({[(4-chloro-2-fluorophenyl)methyl]amino}carbonyl)phenyl]pyrazine-2-carboxamide]
Nc1ncc(-c2cccc(C(=O)NCc3cccc(Cl)c3F)c2)nc1C(=O)N[C@H]1CCCNC1 [Example 997, 3-amino-6-[3-({[(3-chloro-2-fluorophenyl)methyl]amino}carbonyl)phenyl]-N-[(3S)-piperidin-3-yl]pyrazine-2-carboxamide]
Nc1ncc(-c2cccc(C(=O)NCc3cc(C(F)(F)F)ccc3F)c2)nc1C(=O)N[C@H]1CCCNC1 [Example 998, 3-amino-6-{3-[({[2-fluoro-5-(trifluoromethyl)phenyl]methyl}amino)carbonyl]phenyl}-N-[(3S)-piperidin-3-yl]pyrazine-2-carboxamide]
Nc1ncc(-c2cccc(CNCc3ccc(F)cc3F)c2)nc1C(=O)N[C@H]1CCCNC1 [Example 999, 3-amino-6-[3-({[(2,4-difluorophenyl)methyl]amino}methyl)phenyl]-N-[(3S)-piperidin-3-yl]pyrazine-2-carboxamide]
Nc1ncc(-c2cccc(C(=O)NCc3c(F)ccc(Cl)c3F)c2)nc1C(=O)N[C@H]1CCCNC1 [Example 1000, 3-amino-6-[3-({[(3-chloro-2,6-difluorophenyl)methyl]amino}carbonyl)phenyl]-N-[(3S)-piperidin-3-yl]pyrazine-2-carboxamide]
Nc1ncc(-c2cccc(C(=O)NCc3ccc(F)cc3Cl)c2)nc1C(=O)N[C@H]1CCCNC1 [Example 1002, 3-amino-6-[3-({[(2-chloro-4-fluorophenyl)methyl]amino}carbonyl)phenyl]-N-[(3S)-piperidin-3-yl]pyrazine-2-carboxamide]
Nc1ncc(-c2cccc(C(=O)NCc3cccc(Cl)c3Cl)c2)nc1C(=O)N[C@H]1CCCNC1 [Example 1003, 3-amino-6-[3-({[(2,3-dichlorophenyl)methyl]amino}carbonyl)phenyl]-N-[(3S)-piperidin-3-yl]pyrazine-2-carboxamide]
Nc1ncc(-c2cccc(C(=O)NCc3c(F)ccc(F)c3F)c2)nc1C(=O)N[C@H]1CCCNC1 [Example 1004, 3-amino-N-[(3S)-piperidin-3-yl]-6-[3-({[(2,3,6-trifluorophenyl)methyl]amino}carbonyl)phenyl]pyrazine-2-carboxamide]
Nc1ncc(-c2cccc(C(=O)NCc3ccc(Cl)c(C(F)(F)F)c3)c2)nc1C(=O)N[C@H]1CCCNC1 [Example 1005, 3-amino-6-{3-[({[4-chloro-3-(trifluoromethyl)phenyl]methyl}amino)carbonyl]phenyl}-N-[(3S)-piperidin-3-yl]pyrazine-2-carboxamide]
Nc1ncc(-c2cccc(C(=O)NCc3cccc(F)c3F)c2)nc1C(=O)N[C@H]1CCCCNC1 [Example 1007, 3-amino-N-[(3S)-azepan-3-yl]-6-[3-({[(2,3-difluorophenyl)methyl]amino}carbonyl)phenyl]pyrazine-2-carboxamide]
Nc1ncc(-c2cccc(C(=O)NCc3ccc(F)c(F)c3)c2)nc1C(=O)N[C@H]1CCCCNC1 [Example 1008, 3-amino-N-[(3S)-azepan-3-yl]-6-[3-({[(3,4-difluorophenyl)methyl]amino}carbonyl)phenyl]pyrazine-2-carboxamide]
Nc1ncc(-c2cccc(C(=O)NCc3cc(F)cc(F)c3)c2)nc1C(=O)N[C@H]1CCCCNC1 [Example 1009, 3-amino-N-[(3S)-azepan-3-yl]-6-[3-({[(3,5-difluorophenyl)methyl]amino}carbonyl)phenyl]pyrazine-2-carboxamide]
Nc1ncc(-c2cccc(C(=O)NCc3c(F)cccc3F)c2)nc1C(=O)N[C@H]1CCCNC1 [Example 1010, 3-amino-6-[3-({[(2,6-difluorophenyl)methyl]amino}carbonyl)phenyl]-N-[(3S)-piperidin-3-yl]pyrazine-2-carboxamide]
